Counter-ions that a name gives are not always drawn. Like-named read-outs stand apart in the source and are kept apart here.
How the values were obtained:
α2C receptor = target: T1, α2C receptor (Homo sapiens, UniProt P18825); test: Competition binding, [3H]rauwolscine, human α2C receptor
T1 construct: host or cells: LM(tk-) cells, line L-α2C
T1 sequence (P18825 1-462): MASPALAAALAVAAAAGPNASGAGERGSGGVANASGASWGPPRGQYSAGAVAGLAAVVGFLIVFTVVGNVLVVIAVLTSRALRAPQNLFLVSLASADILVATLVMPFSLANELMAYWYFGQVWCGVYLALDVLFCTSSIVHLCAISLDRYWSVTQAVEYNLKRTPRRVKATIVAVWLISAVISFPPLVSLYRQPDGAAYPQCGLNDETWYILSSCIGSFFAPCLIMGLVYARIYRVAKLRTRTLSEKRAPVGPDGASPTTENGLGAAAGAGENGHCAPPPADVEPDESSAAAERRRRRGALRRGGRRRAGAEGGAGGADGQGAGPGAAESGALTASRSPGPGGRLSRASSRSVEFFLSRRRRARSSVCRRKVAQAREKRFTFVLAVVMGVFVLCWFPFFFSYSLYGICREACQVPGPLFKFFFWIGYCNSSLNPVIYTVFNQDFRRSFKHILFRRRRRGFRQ
Method in brief: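 Lysates of LM(tk−) cells stably expressing each α2 subtype were suspended in 25 mM glycylglycine buffer (pH 7.6 at room temperature). Equilibrium competition binding used 0.5 nM [3H]rauwolscine, with nonspecific binding defined by 10 μM phentolamine; bound radioligand was separated by GF/B filtration.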

[1] = target: T2, α1A Human Adrenergic Receptor (Homo sapiens, UniProt P25100); test: Radioligand binding, [3H]prazosin, cloned human α1A adrenergic receptor
T2 construct: The entire coding region of α1A (1719 bp); expressed in transfected cells
T2 sequence (P25100 1-572): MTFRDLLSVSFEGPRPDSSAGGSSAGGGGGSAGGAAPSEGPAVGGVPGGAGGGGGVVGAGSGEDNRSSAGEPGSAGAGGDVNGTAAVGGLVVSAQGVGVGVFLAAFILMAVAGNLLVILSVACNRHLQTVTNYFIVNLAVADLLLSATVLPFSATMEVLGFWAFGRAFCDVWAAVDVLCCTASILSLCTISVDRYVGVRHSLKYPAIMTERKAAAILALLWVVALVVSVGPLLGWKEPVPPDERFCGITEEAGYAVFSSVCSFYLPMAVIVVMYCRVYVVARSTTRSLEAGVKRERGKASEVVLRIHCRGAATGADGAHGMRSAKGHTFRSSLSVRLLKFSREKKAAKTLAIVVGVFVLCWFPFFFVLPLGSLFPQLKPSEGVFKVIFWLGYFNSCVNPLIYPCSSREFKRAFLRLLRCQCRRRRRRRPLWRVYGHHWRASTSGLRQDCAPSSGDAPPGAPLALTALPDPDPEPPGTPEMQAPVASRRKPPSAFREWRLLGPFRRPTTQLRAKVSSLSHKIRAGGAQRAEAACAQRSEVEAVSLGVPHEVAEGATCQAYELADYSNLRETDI
Method in brief: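 Membranes from LM(tk−) cells transfected with human α1A were incubated with 0.5 nM [3H]prazosin in 50 mM Tris-HCl, 1 mM MgCl2, 0.1% ascorbic acid, pH 7.5, for 20 min at 37° C. Nonspecific binding was defined with 10 μM phentolamine. Bound ligand was separated by GF/B filtration.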

[2] = target: T3, α1C Human Adrenergic Receptor (Homo sapiens, UniProt P35348); test: Radioligand binding, [3H]prazosin, cloned human α1C adrenergic receptor
T3 construct: The entire coding region of α1C (1401 bp); expressed in transfected cells
T3 sequence (P35348 1-466): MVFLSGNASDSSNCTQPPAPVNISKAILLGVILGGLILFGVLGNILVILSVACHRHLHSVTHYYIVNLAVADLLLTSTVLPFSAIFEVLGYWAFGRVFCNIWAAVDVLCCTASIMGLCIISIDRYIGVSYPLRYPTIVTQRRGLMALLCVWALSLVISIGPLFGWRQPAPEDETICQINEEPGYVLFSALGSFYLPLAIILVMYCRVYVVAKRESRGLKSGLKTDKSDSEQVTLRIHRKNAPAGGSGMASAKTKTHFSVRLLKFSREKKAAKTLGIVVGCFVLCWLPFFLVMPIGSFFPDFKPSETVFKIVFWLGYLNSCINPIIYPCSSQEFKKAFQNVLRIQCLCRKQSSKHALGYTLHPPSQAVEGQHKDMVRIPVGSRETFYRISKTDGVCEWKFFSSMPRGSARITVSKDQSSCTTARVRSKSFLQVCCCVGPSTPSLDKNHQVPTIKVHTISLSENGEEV
Method in brief: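 LM(tk−) membranes (stable human α1C); [3H]prazosin 0.5 nM; 37° C., 20 min; Tris-HCl 50 mM/MgCl2 1 mM/ascorbate 0.1%, pH 7.5; NSB 10 μM phentolamine; GF/B filtration.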

[3] = [3H]rauwolscine, human receptor, LM(tk-) cell lysates, mean, read-out: PKi alpha-2 2c (converted)
[4] = [3H]prazosin, cloned human receptor, LM(tk-) cell membranes, mean, read-out: PKi alpha-1 1a (converted)
[5] = cloned human receptor, LM(tk-) cell membranes, mean, read-out: PKi alpha-1 1c (converted)
[6] = [3H]rauwolscine, human α2C receptor, LM(tk-) cells, read-out: PKi alpha-2 2c (converted)

CCOC(=O)C1(c2ccccc2)CCN(CCCNC(=O)C2=C(COCCN)NC(CC)=C(C(=O)NC)C2c2ccc([N+](=O)[O-])cc2)CC1 (stereo not drawn) [Example 194, 2-[(2-Aminoethoxy)methyl]-3-{N-[3-(4-ethoxycarbonyl-4-phenylpiperidin-1-yl)propyl]}carboxamido-1,4-dihydro-6-ethyl-5-(N-methyl) carboxamido-4-(4-nitrophenyl) pyridine]
Ki (α2C receptor; [3]): 1070 nM
Ki [1, 4]: 4900 nM
Ki [2, 5]: 3.72 nM

CCOC(=O)C1(c2ccccc2)CCN(CCCNC(=O)C2=C(COCCN)NC(CC)=C(C(=O)OC)C2c2ccc([N+](=O)[O-])cc2)CC1 (stereo not drawn) [Example 197, 2-[(2-Aminoethoxy)methyl]-3-{N-[3-(4-ethoxycarbonyl-4-phenylpiperidin-1-yl)propyl]}carboxamido-1,4-dihydro-6-ethyl-5-methoxycarbonyl-4-(4-nitrophenyl) pyridine]
Ki (α2C receptor; PKi alpha-2 2c): 513 nM
Ki ([1]; PKi alpha-1 1a): 251 nM
Ki [2, 5]: 0.55 nM

CCC1=C(C(=O)NCCOC)C(c2ccc([N+](=O)[O-])cc2)C(C(=O)NCCCN2CCC(c3ccccc3)(c3ccccc3)CC2)=C(COC)N1 (stereo not drawn) [Example 247, 6-Ethyl-1,4-dihydro-5-N-((2-methoxy)ethyl)carboxamido-2-(methyloxy)methyl-4-(4-nitro)phenyl-3-(N-(3-(4,4-diphenylpiperidin-1-yl)propyl)) carboxamidopyridine]
Ki (α2C receptor; [6]): 302 nM
Ki ([1]; PKi alpha-1 1a, [3H]prazosin, cloned human α1A receptor, LM(tk-) cell membranes): 977 nM
Ki ([2]; PKi alpha-1 1c, cloned human α1C receptor, LM(tk-) cell membranes): 24.5 nM

CNC(=O)C1=C(C)NC(C)=C(C(=O)NCCCN2CCC(c3ccccc3)(c3ccccc3)CC2)C1c1ccc([N+](=O)[O-])cc1 (stereo not drawn) [Example 38, 1,4-Dihydro-2,6-dimethyl-5-(N-methyl)carboxamido-4-(4-nitrophenyl)-3-{N-[3-(4,4-diphenylpiperidin-1-yl)propyl]}carboxamidopyridine]
pKi alpha-2 2c (α2C receptor): 6.49
pKi alpha-1 1a [1]: 6.21
pKi alpha-1 1c ([2]; cloned human receptor in LM(tk-) cell membranes, SEM and n in lines below): 8.50

COC(=O)C1=C(C)NC(C)=C(C(=O)NCCCN2CCC(c3ccccc3)CC2)C1c1ccc2c(c1)OCO2 (stereo not drawn) [Example 250]
Ki (α2C receptor; [6]): 36.3 nM
Ki ([1]; [3H]prazosin, cloned human α1A receptor, LM(tk-) cell membranes, read-out: PKi alpha-1 1a (converted)): 603 nM
Ki ([2]; cloned human α1C receptor, LM(tk-) cell membranes, read-out: PKi alpha-1 1c (converted)): 1.1 nM

CCC1=C(C(N)=O)C(c2ccc([N+](=O)[O-])cc2)C(C(=O)NC2CCN(CCc3c[nH]c4ccccc34)CC2)=CN1CC (stereo not drawn) [Example 123, 5-Carboxamido-1,6-diethyl-1,4-dihydro-3-(N-{1-[2-(3-indolyl)ethyl]piperidin-4-yl}) carboxamide-4-(4-nitrophenyl)pyridine]
pKi alpha-2 2c (α2C receptor; [3H]rauwolscine, human α2C receptor, LM(tk−) cells): 6.42
pKi alpha-1 1a ([1]; [3H]prazosin, cloned human α1A receptor, LM(tk−) cell membranes): 6.7
pKi alpha-1 1c ([2]; cloned human α1C receptor, LM(tk−) cell membranes): 8.3

CC(=O)C1=C(C)NC(COCCN)=C(C(=O)NCCCN2CCC(c3ccccc3)(c3ccccc3)CC2)C1c1ccc([N+](=O)[O-])cc1 (stereo not drawn) [Example 237, 5-Acetyl-2-((2-aminoethyl)oxy)methyl-1,4-dihydro-6-methyl-4-(4-nitro)phenyl 3-(N-(3-(4,4-diphenylpiperidin-1-yl)propyl)) carboxamidopyridine]
Ki (α2C receptor; [3]): 324 nM
Ki ([1]; PKi alpha-1 1a, [3H]prazosin, cloned human receptor, LM(tk-) cell membranes, mean): 380 nM
Ki ([2]; PKi alpha-1 1c, cloned human receptor, LM(tk-) cell membranes, mean): 2.63 nM

CCC1=C(C(N)=O)C(c2ccc([N+](=O)[O-])cc2)C(C(=O)NCCCN2CCC(C(=O)OC)(c3ccccc3)CC2)=C(COCCN)N1 (stereo not drawn) [Example 234, 2-((2-Aminoethyl)oxy)methyl-5-carboxamido-6-ethyl-1,4-dihydro-3-(N-(3-(4-methoxycarbonyl-4-phenylpiperidin-1-yl)propyl)) carboxamido-4-(4-nitro)phenylpyridine]
Ki (α2C receptor; [3]): 832 nM
Ki [1, 4]: 2750 nM
Ki [2, 5]: 1.62 nM

COC(=O)C1=C(C)NC(C)=C(C(=O)NCCCN2CCCCC2)C1c1ccc([N+](=O)[O-])cc1 (stereo not drawn) [Example 51, 1,4-Dihydro-3-methoxycarbonyl-2,6-dimethyl-4-(4-nitrophenyl)-5-{N-[3-(piperidin-1-yl)propyl]}carboxamidopyridine hydrochloride etherate]
Ki (α2C receptor; [3H]rauwolscine, LM(tk-) cell line L-α2C, SEM and n in lines below, read-out: pKi alpha-2 2c (converted)): 251 nM
Ki ([1]; [3H]prazosin, cloned human receptor in LM(tk-) cell membranes, SEM and n in lines below, read-out: pKi alpha-1 1a (converted)): 9770 nM
Ki ([2]; cloned human receptor in LM(tk-) cell membranes, SEM and n in lines below, read-out: pKi alpha-1 1c (converted)): 479 nM

— patent US6608086B2, “Dihydropyridines and new uses thereof” (Synaptic Pharmaceutical Corporation, priority 1993, dated 2003)
